Laboratory results published in US20240383784A1, “ANTIMICROBIAL SYSTEM AND METHOD” (KEMIRA OYJ, priority 2021, published 2024).

Legend:
[1] = system: Meiothermus silvanus biofilms; assay: Biofilm test on 96-microwell peg lids in synthetic paper machine water, Crystal Violet quantification; type: cell-based; details: SPW; for Impact (biofilm reduction percentage): 45° C., 150 rpm
From the text: (§1) Pure cultures of Meiothermus silvanus, a microbe species commonly found in paper machine biofilms (Ekman J, Journal of Industrial Microbiology & Biotechnology 34:203-211) and Pseudoxanthomonas taiwanensis, another species commonly found in paper machine environments (Desjardins, E & Beaulieu, C, Journal of Industrial Microbiology & Biotechnology 30:141-145) were used to study the efficacy of various chemicals to prevent biofilm formation.
(§2) Biofilm tests were done in fibre-containing synthetic paper machine water, SPW (prepared according to Peltola, et al., J. Ind. Microbiol. Biotechnol. 38: 1719-1727) using 96-microwell plate wells with peg lids (Thermo Fischer Scientific Inc., USA). Plates were incubated at 45° C. with a rotary shaking (150 rpm) providing high flow in each well.
(§3) Wells of 96-microwell plates with peg-lids were filled with SPW and inoculated with the pure bacterial cultures. Biofilm was grown at 45° C. with a rotary shaking (150 rpm) for 24 hours without addition of any chemical compound to be tested.
(§4) After 24 hours from starting the test, the wells were emptied and a fresh solution of SPW, inoculated with the pure bacterial cultures and with different amounts of chemical compounds to be tested were added and the original peg-lid was placed back in place. After an additional 24 hours the wells were emptied and the biofilm amount on the pegs was quantified.
(§5) The amount of biofilm formed on the peg surfaces was quantified with a staining solution by adding 200 μl of 1% Crystal Violet (Merck Millipore KGaA, Germany) in methanol to each well in a clean 96-well plate and placing the biofilm-containing peg-lid on it. After 3 minutes the wells were emptied and the wells and pegs were rinsed 3 times with tap water. Finally the peg-lid was placed in a clean 96-well plate, the attached Crystal Violet was dissolved into ethanol and the absorbance at 595 nm was measured.
(§6) All parts per million (ppm) amounts given in Examples 1-2 are as active ingredients. The Impact values are calculated as biofilm reduction percentages based on a comparison with no added chemicals. A positive value indicates a reduction in amount of biofilm whereas a negative value indicates an increase in the amount of biofilm.

[2] = system: Pseudoxanthomonas taiwanensis biofilms; assay: as above; type: cell-based; details: SPW; for Impact (biofilm reduction percentage): 45° C., 150 rpm
From the text: as §1, §2, §3, §4, §5, §6

[3] = Sodium hypochlorite 4 ppm alone
[4] = Sodium hypochlorite 8 ppm alone
[5] = on its own, up to a dosage of 8 or 16 ppm

OCl [Sodium hypochlorite, reference compound] was tested, and the “Impact (biofilm reduction percentage)” value ([1]; Sodium hypochlorite 2 ppm alone) was −71%, the “Impact (biofilm reduction percentage)” value [1, 3] was 1% and the “Impact (biofilm reduction percentage)” value [1, 4] was 5%. The “biofilm reduction efficacy (in words)” value [1, 5] was “ineffective”, the “Impact (biofilm reduction percentage)” value [2, 3] was −3% and the “Impact (biofilm reduction percentage)” value [2, 4] was −5%. For the same molecule, the “Impact (biofilm reduction percentage)” value ([2]; Sodium hypochlorite 16 ppm alone) was 0% and the “biofilm reduction efficacy (in words)” value [2, 5] was “ineffective”.
In the case of NCl [MCA, Monochloramine], the “Impact (biofilm reduction percentage)” value ([1]; MCA 0.5 ppm alone) is reported as −22%, the “Impact (biofilm reduction percentage)” value ([1]; MCA 1 ppm alone) is reported as 4% and the “Impact (biofilm reduction percentage)” value ([1]; MCA 1.5 ppm alone) is reported as −2%. For the same molecule, the “biofilm reduction efficacy (in words)” value ([1]; at low dosages) was “ineffective”, the “Impact (biofilm reduction percentage)” value ([2]; MCA 0.5 ppm alone) was −11% and the “Impact (biofilm reduction percentage)” value ([2]; MCA 1 ppm alone) was −3%. The “Impact (biofilm reduction percentage)” value ([2]; MCA 1.5 ppm alone) was 7% and the “biofilm reduction efficacy (in words)” value ([2]; at low dosages) was “ineffective”.
In the case of Cc1ccc(S(=O)(=O)C=CC#N)cc1 [Compound A, 3-[(4-methylphenyl)sulphonyl]-2-propenenitrile], the “Impact (biofilm reduction percentage)” value ([1]; Compound A 0.15 ppm alone, Table 1) is reported as 7%, the “Impact (biofilm reduction percentage)” value ([1]; Compound A 0.3 ppm alone, Table 1) is reported as −7% and the “Impact (biofilm reduction percentage)” value ([1]; Compound A 0.3 ppm alone, Table 3) is reported as −15%. The “Impact (biofilm reduction percentage)” value ([1]; Compound A 0.45 ppm alone, Table 3) was 11%, the “biofilm reduction efficacy (in words)” value ([1]; at low dosages) was “ineffective” and the “Impact (biofilm reduction percentage)” value ([2]; Compound A 0.15 ppm alone, Table 2) was 5%. For the same molecule, the “Impact (biofilm reduction percentage)” value ([2]; Compound A 0.15 ppm alone, Table 4) was 19%, the “Impact (biofilm reduction percentage)” value ([2]; Compound A 0.3 ppm alone, Table 2) was 7% and the “biofilm reduction efficacy (in words)” value ([2]; at low dosages) was “ineffective”.
